In patent US20240123079A1 (Seagen Inc., priority 2021, published 2024):

How the values were obtained:
[1] = In vivo cytokine assay, plasma of Renca tumor-bearing mice; set-up: species or system mouse; IFNg production in plasma / IL-1b production in plasma / IL-6 production in plasma / IL12p70 production in plasma / IP10 production in plasma / MIP1a production in plasma / MIP1b production in plasma / TNFa production in plasma: unit not given here
Procedure: Cytokines were measured in mouse plasma harvested at 3, 6, 24, or 48 hours after treatment with compounds or ADCs using a Milliplex MAP mouse cytokine/chemokine magnetic bead panel assay kit (MCYTOMAG-70k custom 11-plex kit: MCP1, MIP1α, MIP1β, TNFα, IFNγ, IL-10, IL-12p70, IL-6, IL-1β, IP10, RANTES) and analyzed using a Luminex™ MAGPIX™ Instrument System. Values that were outside of the standard curve range (<3.2 or […]) were excluded from calculation of the mean values.

MOLM-13 = test: Cancer cell direct cytotoxicity assay (CellTiter-Glo), MOLM-13; assay type: cell-based; conditions: Homo sapiens; MOLM-13, 96 h, free compound; read-out: Compound X50
Procedure: Bystander activity of ADCs was evaluated using Renca cancer cells and THP1-Dual™ cells (InvivoGen) which contain an IRF-Lucia luciferase reporter. Cells were cultured in RPMI-1640 (Gibco) with 10% heat-inactivated fetal bovine serum, Pen-Strep (100 U/ml-100 μg/ml, Gibco), HEPES (10 mM, Gibco), sodium pyruvate (1 mM, Gibco), MEM non-essential amino acids (1×, Gibco), GlutaMAX (1×, Gibco), and beta-mercaptoethanol (55 μM, Gibco). Renca cells were plated in a 96-well flat bottom tissue culture-treated clear polystyrene plate (Corning Costar #3596) at 50,000 cells per well in 100 μL. On the day following the initial plating, 50,000 THP1-Dual™ cells were added to each well with the indicated concentration of ADC in a total volume of 200 μL. Supernatant was harvested at 48 hours post addition of the THP1-Dual™ cells. To measure Lucia reporter signal, 10 μL of supernatant was combined with 40 μL of QUANTI-Luc™ Luminescence assay reagent (Invivogen PN: rep-qlc1) in a 96-well clear flat bottom tissue culture-treated black polystyrene plate (Corning Costar PN: 3603) and read on a Perkin Elmer Envision plate reader. In some experiments, HEK 293T cells engineered to express a murine protein typically expressed by immune cells (target antigen C— an immune cell antigen) were plated as above instead of Renca tumor cells. Cancer Cell Direct Cytotoxicity Assay
Cancer cells were counted and plated in 40 μL complete growth media in 384-well, white-walled tissue culture treated plates (Corning). Cell plates were incubated at 37° C. and with 5% CO2 overnight to allow the cells to equilibrate. Stock solutions containing ADCs or free drugs were serially diluted in RPMI-1640+20% fetal bovine serum (FBS). 10 μL of each concentration were then added to each cell plate in duplicate. Cells were then incubated at 37° C. and with 5% CO2 for 96 hours, upon which, the cell plates were removed from the incubator and allowed to cool to room temperature for 30 minutes prior to analysis. […] The luminescence of the samples was measured using an EnVision Multimode plate reader (Perkin Elmer, Waltham, MA). […]

CCn1nc(C)cc1C(=O)Nc1nc2cc(C(N)=O)cc(OC)c2n1C/C=C/Cn1c(NC(=O)c2cc(C)nn2CC)nc2cc(C(N)=O)cc(OCCCNC)c21 [Compound 12a]
MCP-1 production in plasma ([1]; 0.6 mg/kg, dose #1, 24 h): 141.5 | MIP1a production in plasma ([1]; 0.6 mg/kg, dose #1, 24 h): <3.2 | MIP1b production in plasma ([1]; 0.6 mg/kg, dose #1, 24 h): <3.2 | RANTES production in plasma ([1]; 0.6 mg/kg, dose #1, 24 h): 46.2 | TNFa production in plasma ([1]; 0.6 mg/kg, dose #1, 24 h): 5.2 | IFNg production in plasma ([1]; 0.6 mg/kg, dose #1, 48 h): <3.2 | IL12p70 production in plasma ([1]; 0.6 mg/kg, dose #1, 48 h): <3.2 | IL-1b production in plasma ([1]; 0.6 mg/kg, dose #1, 48 h): 5.7 | IL-6 production in plasma ([1]; 0.6 mg/kg, dose #1, 48 h): 1.8 | IL-10 production in plasma ([1]; 0.6 mg/kg, dose #1, 48 h): <3.2 | IP10 production in plasma ([1]; 0.6 mg/kg, dose #1, 48 h): 218.4 | MCP-1 production in plasma ([1]; 0.6 mg/kg, dose #1, 48 h): 40.0 | MIP1a production in plasma ([1]; 0.6 mg/kg, dose #1, 48 h): 10.3 | MIP1b production in plasma ([1]; 0.6 mg/kg, dose #1, 48 h): <3.2 | RANTES production in plasma ([1]; 0.6 mg/kg, dose #1, 48 h): 5.0 | TNFa production in plasma ([1]; 0.6 mg/kg, dose #1, 48 h): <3.2 | IFNg production in plasma ([1]; 0.6 mg/kg, dose #2, 6 h): 41.5 | IL12p70 production in plasma ([1]; 0.6 mg/kg, dose #2, 6 h): 28.4 | IL-1b production in plasma ([1]; 0.6 mg/kg, dose #2, 6 h): 5.8 | IL-6 production in plasma ([1]; 0.6 mg/kg, dose #2, 6 h): 516.9 | IL-10 production in plasma ([1]; 0.6 mg/kg, dose #2, 6 h): <3.2 | IP10 production in plasma ([1]; 0.6 mg/kg, dose #2, 6 h): 3996.6 | MCP-1 production in plasma ([1]; 0.6 mg/kg, dose #2, 6 h): 9761.2 | MIP1a production in plasma ([1]; 0.6 mg/kg, dose #2, 6 h): 115.5 | MIP1b production in plasma ([1]; 0.6 mg/kg, dose #2, 6 h): 837.6 | RANTES production in plasma ([1]; 0.6 mg/kg, dose #2, 6 h): 621.6 | TNFa production in plasma ([1]; 0.6 mg/kg, dose #2, 6 h): 16.7 | IFNg production in plasma ([1]; 1.8 mg/kg, dose #1, 3 h): <3.2 | IL12p70 production in plasma ([1]; 1.8 mg/kg, dose #1, 3 h): 3.1 | IL-1b production in plasma ([1]; 1.8 mg/kg, dose #1, 3 h): 7.5 | IL-6 production in plasma ([1]; 1.8 mg/kg, dose #1, 3 h): 4314.6 | IL-10 production in plasma ([1]; 1.8 mg/kg, dose #1, 3 h): 27.3 | IP10 production in plasma ([1]; 1.8 mg/kg, dose #1, 3 h): 8222.7 | MCP-1 production in plasma ([1]; 1.8 mg/kg, dose #1, 3 h): 5805.3 | MIP1a production in plasma ([1]; 1.8 mg/kg, dose #1, 3 h): 1052.6 | MIP1b production in plasma ([1]; 1.8 mg/kg, dose #1, 3 h): 7438.6 | RANTES production in plasma ([1]; 1.8 mg/kg, dose #1, 3 h): 51.2 | TNFa production in plasma ([1]; 1.8 mg/kg, dose #1, 3 h): 46.4 | IFNg production in plasma ([1]; 1.8 mg/kg, dose #1, 6 h): 36.4 | IL12p70 production in plasma ([1]; 1.8 mg/kg, dose #1, 6 h): <3.2 | IL-1b production in plasma ([1]; 1.8 mg/kg, dose #1, 6 h): 0.7 | IL-6 production in plasma ([1]; 1.8 mg/kg, dose #1, 6 h): 543.0 | IL-10 production in plasma ([1]; 1.8 mg/kg, dose #1, 6 h): 9.9 | IP10 production in plasma ([1]; 1.8 mg/kg, dose #1, 6 h): 7589.2 | MCP-1 production in plasma ([1]; 1.8 mg/kg, dose #1, 6 h): 13861.5 | MIP1a production in plasma ([1]; 1.8 mg/kg, dose #1, 6 h): 172.2 | MIP1b production in plasma ([1]; 1.8 mg/kg, dose #1, 6 h): 1162.7 | RANTES production in plasma ([1]; 1.8 mg/kg, dose #1, 6 h): 526.2 | TNFa production in plasma ([1]; 1.8 mg/kg, dose #1, 6 h): 21.2 | IFNg production in plasma ([1]; 1.8 mg/kg, dose #1, 24 h): <3.2 | IL12p70 production in plasma ([1]; 1.8 mg/kg, dose #1, 24 h): <3.2 | IL-1b production in plasma ([1]; 1.8 mg/kg, dose #1, 24 h): 3.2 | IL-6 production in plasma ([1]; 1.8 mg/kg, dose #1, 24 h): 6.8 | IL-10 production in plasma ([1]; 1.8 mg/kg, dose #1, 24 h): <3.2 | IP10 production in plasma ([1]; 1.8 mg/kg, dose #1, 24 h): 595.6 | MCP-1 production in plasma ([1]; 1.8 mg/kg, dose #1, 24 h): 143.9 | MIP1a production in plasma ([1]; 1.8 mg/kg, dose #1, 24 h): 10.3 | MIP1b production in plasma ([1]; 1.8 mg/kg, dose #1, 24 h): <3.2 | RANTES production in plasma ([1]; 1.8 mg/kg, dose #1, 24 h): 48.8 | TNFa production in plasma ([1]; 1.8 mg/kg, dose #1, 24 h): 3.2 | IFNg production in plasma ([1]; 1.8 mg/kg, dose #1, 48 h): <3.2 | IL12p70 production in plasma ([1]; 1.8 mg/kg, dose #1, 48 h): <3.2 | IL-1b production in plasma ([1]; 1.8 mg/kg, dose #1, 48 h): 3.2 | IL-6 production in plasma ([1]; 1.8 mg/kg, dose #1, 48 h): 1.5 | IL-10 production in plasma ([1]; 1.8 mg/kg, dose #1, 48 h): <3.2 | IP10 production in plasma ([1]; 1.8 mg/kg, dose #1, 48 h): 223.5 | MCP-1 production in plasma ([1]; 1.8 mg/kg, dose #1, 48 h): 2.0 | MIP1a production in plasma ([1]; 1.8 mg/kg, dose #1, 48 h): <3.2 | MIP1b production in plasma ([1]; 1.8 mg/kg, dose #1, 48 h): <3.2 | RANTES production in plasma ([1]; 1.8 mg/kg, dose #1, 48 h): <3.2 | TNFa production in plasma ([1]; 1.8 mg/kg, dose #1, 48 h): 3.2 | IFNg production in plasma ([1]; 1.8 mg/kg, dose #2, 6 h): 80.4 | IL12p70 production in plasma ([1]; 1.8 mg/kg, dose #2, 6 h): 28.4 | IL-1b production in plasma ([1]; 1.8 mg/kg, dose #2, 6 h): 4.6 | IL-6 production in plasma ([1]; 1.8 mg/kg, dose #2, 6 h): 1681.6 | IL-10 production in plasma ([1]; 1.8 mg/kg, dose #2, 6 h): 7.7 | IP10 production in plasma ([1]; 1.8 mg/kg, dose #2, 6 h): 4151.5 | MCP-1 production in plasma ([1]; 1.8 mg/kg, dose #2, 6 h): 17185.9 | MIP1a production in plasma ([1]; 1.8 mg/kg, dose #2, 6 h): 209.9 | MIP1b production in plasma ([1]; 1.8 mg/kg, dose #2, 6 h): 1407.7 | RANTES production in plasma ([1]; 1.8 mg/kg, dose #2, 6 h): 892.1 | TNFa production in plasma ([1]; 1.8 mg/kg, dose #2, 6 h): 46.4 | systemic pro-inflammatory cytokine (IL-6 and TNF) production ([1]; plasma of tumor-bearing mice): induced robust production of IL-6 and TNF | IC50 (MOLM-13): 87 nM
